The text below walks through data of paper PMC5218480 (PLoS ONE, 2017).

The assay has as its system MV-4-11 cells. The assay can be described thus: Gene expression microarray analysis (Affymetrix PrimeView) and GSEA. It is filed as cell-based, human. On the set-up: RFU PODN (11730768_x_at) / Fold change /veh PODN (11730768_x_at) / RFU LINC00158 (11744669_a_at) / Fold change /veh LINC00158 (11744669_a_at) / RFU DUSP10 (11751237_a_at) / Fold change /veh DUSP10 (11751237_a_at) / RFU ID3 (11757404_x_at) / Fold change /veh ID3 (11757404_x_at) / RFU PLEKHG5 (11737974_s_at) / Fold change /veh PLEKHG5 (11737974_s_at) / RFU LRRC4B (11730491_at) / Fold change /veh LRRC4B (11730491_at) / RFU GIMAP4 (11747438_a_at) / Fold change /veh GIMAP4 (11747438_a_at) / RFU KRT8 (11758183_x_at) / Fold change /veh KRT8 (11758183_x_at) / RFU CNN1 (11734310_a_at) / Fold change /veh CNN1 (11734310_a_at) / RFU VPS37D (11726825_at) / Fold change /veh VPS37D (11726825_at) / RFU C10orf10 (11716522_x_at) / Fold change /veh C10orf10 (11716522_x_at) / RFU KIR2DL2 /// KIR2DL4 /// KIR2DL5A /// KIR2DL5B /// KIR2DS1 /// KIR2DS2 /// KIR2DS3 /// KIR2DS4 /// KIR3DL3 /// KIR3DL3 /// KIR3DS1 (11738374_at) / Fold change /veh KIR2DL2 /// KIR2DL4 /// KIR2DL5A /// KIR2DL5B /// KIR2DS1 /// KIR2DS2 /// KIR2DS3 /// KIR2DS4 /// KIR3DL3 /// KIR3DL3 /// KIR3DS1 (11738374_at) / RFU C1QL1 (11718748_at) / Fold change /veh C1QL1 (11718748_at) / RFU TMPRSS4 (11747572_a_at) / Fold change /veh TMPRSS4 (11747572_a_at) / RFU HAMP (11756126_x_at) / Fold change /veh HAMP (11756126_x_at) / RFU RNFT2 (11725882_a_at) / Fold change /veh RNFT2 (11725882_a_at) / RFU NR4A2 (11747474_a_at) / Fold change /veh NR4A2 (11747474_a_at) / RFU ABCC12 (11746883_a_at) / Fold change /veh ABCC12 (11746883_a_at) / RFU TMEM136 (11760407_x_at) / Fold change /veh TMEM136 (11760407_x_at) / RFU CLDN22 /// WWC2 (11732394_at) / Fold change /veh CLDN22 /// WWC2 (11732394_at) / RFU HLA-DPB1 (11760878_x_at) / Fold change /veh HLA-DPB1 (11760878_x_at) / RFU SPINT1 (11716480_a_at) / Fold change /veh SPINT1 (11716480_a_at) / RFU GAP43 (11754022_s_at) / Fold change /veh GAP43 (11754022_s_at) / RFU A4GNT (11735810_at) / Fold change /veh A4GNT (11735810_at) / RFU PRB3 (11715151_x_at) / Fold change /veh PRB3 (11715151_x_at) / RFU TUBB4B (11761932_at) / Fold change /veh TUBB4B (11761932_at) / RFU CAPN14 (11732068_a_at) / Fold change /veh CAPN14 (11732068_a_at) / RFU TMCC2 (11721928_a_at) / Fold change /veh TMCC2 (11721928_a_at) / RFU IRGQ (11745062_a_at) / Fold change /veh IRGQ (11745062_a_at) / RFU FAM174B (11720279_a_at) / Fold change /veh FAM174B (11720279_a_at) / RFU TMPRSS4 (11748680_a_at) / Fold change /veh TMPRSS4 (11748680_a_at) / RFU FAM212B (11763350_a_at) / Fold change /veh FAM212B (11763350_a_at) / RFU PLEKHG5 (11743358_a_at) / Fold change /veh PLEKHG5 (11743358_a_at) / RFU ZSCAN30 (11745921_a_at) / Fold change /veh ZSCAN30 (11745921_a_at) / RFU CMKLR1 (11741424_a_at) / Fold change /veh CMKLR1 (11741424_a_at) / RFU LOC101060620 /// MAPK8IP1 (11723275_at) / Fold change /veh LOC101060620 /// MAPK8IP1 (11723275_at) / RFU SPTSSB (11747773_x_at) / Fold change /veh SPTSSB (11747773_x_at) / RFU PRSS12 (11739890_at) / Fold change /veh PRSS12 (11739890_at) / RFU BIN1 (11741810_x_at) / Fold change /veh BIN1 (11741810_x_at) / RFU WNT11 (11732464_a_at) / Fold change /veh WNT11 (11732464_a_at) / RFU C10orf10 (11716521_a_at) / Fold change /veh C10orf10 (11716521_a_at) / RFU C5orf56 (11738089_at) / Fold change /veh C5orf56 (11738089_at) / RFU CYB561 (11721691_x_at) / Fold change /veh CYB561 (11721691_x_at) / RFU ANKRD19P (11752326_a_at) / Fold change /veh ANKRD19P (11752326_a_at) / RFU OR2T12 /// OR2T33 /// OR2T8 (11738714_s_at) / Fold change /veh OR2T12 /// OR2T33 /// OR2T8 (11738714_s_at) / RFU VCAN (11748164_a_at) / Fold change /veh VCAN (11748164_a_at) / RFU JSRP1 (11732532_at) / Fold change /veh JSRP1 (11732532_at) / RFU KRTAP10-11 (11738290_x_at) / Fold change /veh KRTAP10-11 (11738290_x_at) / RFU MYO3A (11730013_a_at) / Fold change /veh MYO3A (11730013_a_at) / RFU EBF3 (11725865_a_at) / Fold change /veh EBF3 (11725865_a_at) / RFU CAMK2N1 (11719241_x_at) / Fold change /veh CAMK2N1 (11719241_x_at) / RFU C5orf56 (11738088_a_at) / Fold change /veh C5orf56 (11738088_a_at) / RFU OLFML3 (11715873_a_at) / Fold change /veh OLFML3 (11715873_a_at) / RFU LOC100653217 /// NTM (11731650_a_at) / Fold change /veh LOC100653217 /// NTM (11731650_a_at) / RFU MAPK11 (11762145_a_at) / Fold change /veh MAPK11 (11762145_a_at) / RFU FIZ1 (11724087_x_at) / Fold change /veh FIZ1 (11724087_x_at) / RFU OASL (11726364_x_at) / Fold change /veh OASL (11726364_x_at) / RFU SOX15 (11748057_x_at) / Fold change /veh SOX15 (11748057_x_at) / RFU CD79A (11719716_a_at) / Fold change /veh CD79A (11719716_a_at) / RFU HIST1H1D (11736915_at) / Fold change /veh HIST1H1D (11736915_at) / RFU CASKIN2 (11723855_a_at) / Fold change /veh CASKIN2 (11723855_a_at) / RFU LOC730098 (11760151_x_at) / Fold change /veh LOC730098 (11760151_x_at) / RFU OR4N2 (11742367_at) / Fold change /veh OR4N2 (11742367_at) / RFU PRRT2 (11749266_a_at) / Fold change /veh PRRT2 (11749266_a_at) / RFU SNX32 (11753110_a_at) / Fold change /veh SNX32 (11753110_a_at) / RFU CDHR5 (11726645_a_at) / Fold change /veh CDHR5 (11726645_a_at) / RFU RCAN1 (11760418_a_at) / Fold change /veh RCAN1 (11760418_a_at) / RFU FAM167A (11723789_a_at) / Fold change /veh FAM167A (11723789_a_at) / RFU FAM26E (11764081_at) / Fold change /veh FAM26E (11764081_at) / RFU ISYNA1 (11749810_s_at) / Fold change /veh ISYNA1 (11749810_s_at) / RFU ACY1 (11761880_at) / Fold change /veh ACY1 (11761880_at) / RFU 11764098_at / Fold change /veh 11764098_at / RFU SAMD14 (11745864_x_at) / Fold change /veh SAMD14 (11745864_x_at) / RFU NPB (11741838_a_at) / Fold change /veh NPB (11741838_a_at) / RFU TMPRSS6 (11731388_a_at) / Fold change /veh TMPRSS6 (11731388_a_at) / RFU KRTAP10-2 (11738614_at) / Fold change /veh KRTAP10-2 (11738614_at) / RFU ARHGAP8 /// PRR5-ARHGAP8 (11727945_x_at) / Fold change /veh ARHGAP8 /// PRR5-ARHGAP8 (11727945_x_at) / RFU KRTAP5-7 /// NADSYN1 (11734609_at) / Fold change /veh KRTAP5-7 /// NADSYN1 (11734609_at) / RFU RASL12 (11751679_a_at) / Fold change /veh RASL12 (11751679_a_at) / RFU CDKN2B (11736163_a_at) / Fold change /veh CDKN2B (11736163_a_at) / RFU PRF1 (11729649_at) / Fold change /veh PRF1 (11729649_at) / RFU, ZNF638 /// ZNF638-IT1 / Fold change vs veh, ZNF638 /// ZNF638-IT1 / RFU, PANK3 / Fold change vs veh, PANK3 / RFU, SH3YL1 / Fold change vs veh, SH3YL1 / RFU, ZEB2 / Fold change vs veh, ZEB2 / RFU, NRIP1 / Fold change vs veh, NRIP1 / RFU, PTTG1IP / Fold change vs veh, PTTG1IP / RFU, CAPN2 / Fold change vs veh, CAPN2 / RFU, MED14 / Fold change vs veh, MED14 / RFU, SNORA58 / Fold change vs veh, SNORA58 / RFU, C1orf63 / Fold change vs veh, C1orf63 / RFU, LRRFIP1 / Fold change vs veh, LRRFIP1 / RFU, NDUFAF7 / Fold change vs veh, NDUFAF7 / RFU, SLC12A2 / Fold change vs veh, SLC12A2 / RFU, IBTK / Fold change vs veh, IBTK / RFU, ESF1 / Fold change vs veh, ESF1 / Fold change vs veh, TMEM50B / RFU, TAOK1 / Fold change vs veh, TAOK1 / RFU, ACBD3 / Fold change vs veh, ACBD3 / RFU, TMA16 / Fold change vs veh, TMA16 / RFU, RWDD3 / Fold change vs veh, RWDD3 / RFU, BCAT1 / Fold change vs veh, BCAT1 / RFU, EDEM3 / Fold change vs veh, EDEM3 / RFU, TMEM33 / Fold change vs veh, TMEM33 / RFU, WDR75 / Fold change vs veh, WDR75 / RFU, AHCTF1 / Fold change vs veh, AHCTF1 / RFU, TFRC / Fold change vs veh, TFRC / RFU, ZDHHC17 / Fold change vs veh, ZDHHC17 / RFU, NOM1 / Fold change vs veh, NOM1 / RFU, ARL8B / Fold change vs veh, ARL8B / RFU, ZBTB11 / Fold change vs veh, ZBTB11 / RFU, TAMM41 / Fold change vs veh, TAMM41 / RFU, KIAA1704 /// LOC100996395 / Fold change vs veh, KIAA1704 /// LOC100996395 / RFU, ING1 / Fold change vs veh, ING1 / RFU, TRMT61B / Fold change vs veh, TRMT61B / RFU, FUBP3 / Fold change vs veh, FUBP3 / RFU, TP53 / Fold change vs veh, TP53 / RFU, TNKS2 / Fold change vs veh, TNKS2 / RFU, ZFP14 / Fold change vs veh, ZFP14 / RFU, ACTR2 / Fold change vs veh, ACTR2 / RFU, PPP3R1 / Fold change vs veh, PPP3R1 / RFU, PIK3R1 / Fold change vs veh, PIK3R1 / RFU, HNRNPA1 / Fold change vs veh, HNRNPA1 / RFU, RNF170 / Fold change vs veh, RNF170 / RFU, ZNF28 / Fold change vs veh, ZNF28 / RFU, RNGTT / Fold change vs veh, RNGTT / RFU, OGT / Fold change vs veh, OGT / RFU, BRD1 / Fold change vs veh, BRD1 / RFU, MARS / Fold change vs veh, MARS / RFU, ZNF655 / Fold change vs veh, ZNF655 / RFU, FAHD1 / Fold change vs veh, FAHD1 / RFU, BDP1 / Fold change vs veh, BDP1 / RFU, LRRCC1 / Fold change vs veh, LRRCC1 / RFU, ARID1A / Fold change vs veh, ARID1A / RFU, ZNF146 / Fold change vs veh, ZNF146 / RFU, ZNF330 / Fold change vs veh, ZNF330 / RFU, GPN3 / Fold change vs veh, GPN3 / RFU, C9orf123 / Fold change vs veh, C9orf123 / RFU, N4BP2L2 / Fold change vs veh, N4BP2L2 / RFU, ARFIP1 / Fold change vs veh, ARFIP1 / RFU, FAM179B / Fold change vs veh, FAM179B / RFU, BCL10 / Fold change vs veh, BCL10 / RFU, UHRF1BP1L / Fold change vs veh, UHRF1BP1L / RFU, BET1 / Fold change vs veh, BET1 / RFU, CNOT2 / Fold change vs veh, CNOT2 / RFU, ZNF268 / Fold change vs veh, ZNF268 / Fold change vs veh, ZNF507 / RFU, DGCR2 / Fold change vs veh, DGCR2 / RFU, WDSUB1 / Fold change vs veh, WDSUB1 / Fold change vs veh, HSP90B1 /// MIR3652 / RFU, ADSS / Fold change vs veh, ADSS / RFU, GK / Fold change vs veh, GK / RFU, ZNF148 / Fold change vs veh, ZNF148 / RFU, TAF9 / Fold change vs veh, TAF9 / RFU, SLC1A5 / Fold change vs veh, SLC1A5 / RFU, SLMO2 / Fold change vs veh, SLMO2 / RFU, ABCC4 / Fold change vs veh, ABCC4 / RFU, LOC101060439 /// RAP1B / Fold change vs veh, LOC101060439 /// RAP1B / RFU, RFX7 / Fold change vs veh, RFX7 / RFU, GTPBP10 / Fold change vs veh, GTPBP10 / RFU, CNEP1R1 / Fold change vs veh, CNEP1R1 / RFU, BIVM-ERCC5 /// ERCC5 / Fold change vs veh, BIVM-ERCC5 /// ERCC5 / RFU, ILF3 / Fold change vs veh, ILF3 / RFU 11762660_at / Fold change /veh 11762660_at / RFU VCAN (11757783_s_at) / Fold change /veh VCAN (11757783_s_at) / RFU DDX43 (11728927_at) / Fold change /veh DDX43 (11728927_at) / RFU KRT8 (11758188_x_at) / Fold change /veh KRT8 (11758188_x_at) / RFU NKD1 (11759106_at) / Fold change /veh NKD1 (11759106_at) / RFU SRD5A1 (11742802_a_at) / Fold change /veh SRD5A1 (11742802_a_at) / RFU TPSAB1 /// TPSB2 (11721975_s_at) / Fold change /veh TPSAB1 /// TPSB2 (11721975_s_at) / RFU GSTM3 (11746129_a_at) / Fold change /veh GSTM3 (11746129_a_at) / RFU IL23R (11737362_x_at) / Fold change /veh IL23R (11737362_x_at) / RFU TMEM51 (11727254_a_at) / Fold change /veh TMEM51 (11727254_a_at) / RFU PIWIL2 (11732686_x_at) / Fold change /veh PIWIL2 (11732686_x_at) / RFU ORM1 (11744905_x_at) / Fold change /veh ORM1 (11744905_x_at) / RFU CCDC152 (11743942_at) / Fold change /veh CCDC152 (11743942_at) / RFU ECM1 (11717891_a_at) / Fold change /veh ECM1 (11717891_a_at) / RFU IL23R (11748794_a_at) / Fold change /veh IL23R (11748794_a_at) / RFU TNFAIP8L3 (11732012_x_at) / Fold change /veh TNFAIP8L3 (11732012_x_at) / RFU MBOAT4 (11741988_at) / Fold change /veh MBOAT4 (11741988_at) / RFU 11764193_at / Fold change /veh 11764193_at / RFU TMEM53 (11763286_at) / Fold change /veh TMEM53 (11763286_at) / RFU MAGEB2 (11727129_at) / Fold change /veh MAGEB2 (11727129_at) / RFU TMEM200A (11744735_a_at) / Fold change /veh TMEM200A (11744735_a_at) / RFU CCDC152 (11751479_a_at) / Fold change /veh CCDC152 (11751479_a_at) / RFU FAM211A (11726209_a_at) / Fold change /veh FAM211A (11726209_a_at) / RFU RGS16 (11746705_a_at) / Fold change /veh RGS16 (11746705_a_at) / RFU VCAN (11755009_s_at) / Fold change /veh VCAN (11755009_s_at) / RFU RHOB (11743442_s_at) / Fold change /veh RHOB (11743442_s_at) / RFU RGS16 (11720943_a_at) / Fold change /veh RGS16 (11720943_a_at) / RFU RGS16 (11720944_at) / Fold change /veh RGS16 (11720944_at) / RFU, VPS4B / Fold change vs veh, VPS4B / RFU, CREB1 / Fold change vs veh, CREB1 / RFU, DNAJC13 / Fold change vs veh, DNAJC13 / RFU, GNAQ / Fold change vs veh, GNAQ / RFU, CDK5R1 / Fold change vs veh, CDK5R1 / RFU, ZRANB3 / Fold change vs veh, ZRANB3 / RFU, CUL4A / Fold change vs veh, CUL4A / RFU, CCNY / Fold change vs veh, CCNY / RFU, UFL1 / Fold change vs veh, UFL1 / RFU, COG3 / Fold change vs veh, COG3 / RFU, DIAPH2 / Fold change vs veh, DIAPH2 / RFU, SKA2 / Fold change vs veh, SKA2 / RFU, AFF3 / Fold change vs veh, AFF3 / RFU, LMF1 / Fold change vs veh, LMF1 / RFU, IPO11 / Fold change vs veh, IPO11 / RFU, DFFB / Fold change vs veh, DFFB / RFU, FOXP1 / Fold change vs veh, FOXP1 / RFU, CARD8 / Fold change vs veh, CARD8 / RFU, STRN3 / Fold change vs veh, STRN3 / RFU, ADK / Fold change vs veh, ADK / RFU, RASSF2 / Fold change vs veh, RASSF2 / RFU, WIPF1 / Fold change vs veh, WIPF1 / RFU, LARP1B / Fold change vs veh, LARP1B / RFU, RASA1 / Fold change vs veh, RASA1 / RFU, RB1 / Fold change vs veh, RB1 / RFU, PPFIA1 / Fold change vs veh, PPFIA1 / RFU, MAT2A / Fold change vs veh, MAT2A / RFU, CCT5 / Fold change vs veh, CCT5 / RFU, WDR92 / Fold change vs veh, WDR92 / RFU, CUX1 / Fold change vs veh, CUX1 / RFU, TTC7A / Fold change vs veh, TTC7A / RFU, TMEM135 / Fold change vs veh, TMEM135 / RFU, DEPTOR / Fold change vs veh, DEPTOR / RFU, CPM / Fold change vs veh, CPM / RFU, DNAJB6 / Fold change vs veh, DNAJB6 / RFU, CACNA2D3 / Fold change vs veh, CACNA2D3 / RFU, DTX4 / Fold change vs veh, DTX4 / RFU, TFCP2 / Fold change vs veh, TFCP2 / RFU, GMCL1 /// GMCL1P1 / Fold change vs veh, GMCL1 /// GMCL1P1 / RFU, AEBP2 / Fold change vs veh, AEBP2 / RFU, SNHG1 /// SNORD22 /// SNORD25 /// SNORD26 /// SNORD27 /// SNORD28 /// SNORD29 /// SNORD31 / Fold change vs veh, SNHG1 /// SNORD22 /// SNORD25 /// SNORD26 /// SNORD27 /// SNORD28 /// SNORD29 /// SNORD31 / Fold change (Aza/veh), C12orf56 (ProbeSet 11735607_a_at) / Fold change (ACY-1035/veh), C12orf56 (ProbeSet 11735607_a_at) / Fold change (Aza/veh), FGFR1OP (ProbeSet 11751329_s_at) / Fold change (ACY-1035/veh), FGFR1OP (ProbeSet 11751329_s_at) / Fold change (Aza/veh), VPS36 (ProbeSet 11739960_a_at) / Fold change (ACY-1035/veh), VPS36 (ProbeSet 11739960_a_at) / RFU SYPL1 (11715823_x_at) / Fold change /veh SYPL1 (11715823_x_at) / RFU IGFBP7 (11715501_s_at) / Fold change /veh IGFBP7 (11715501_s_at) / RFU REEP3 (11722064_at) / Fold change /veh REEP3 (11722064_at) / RFU IGLL1 (11728026_x_at) / Fold change /veh IGLL1 (11728026_x_at): dose or concentration left out as unconfirmed. Conditions: ProbeSet 11759095_at; LIST D.

For the molecule `Nc1ncn([C@@H]2O[C@H](CO)[C@@H](O)[C@H]2O)c(=O)n1` [azacitidine], the “RFU, GNAQ” value stood at 765.32 RFU.
